Experiments:
[1] = target: T1, PBP6b (Acinetobacter baumannii, UniProt A0ABX6CI93); assay: bocillin-binding assay with SDS-PAGE; conditions: covalent; labelled compound; used to confirm identity of the purified protein
T1 construct: gene dacD; Triton X-100 extraction, Ni-NTA
T1 sequence (A0ABX6CI93 22-439): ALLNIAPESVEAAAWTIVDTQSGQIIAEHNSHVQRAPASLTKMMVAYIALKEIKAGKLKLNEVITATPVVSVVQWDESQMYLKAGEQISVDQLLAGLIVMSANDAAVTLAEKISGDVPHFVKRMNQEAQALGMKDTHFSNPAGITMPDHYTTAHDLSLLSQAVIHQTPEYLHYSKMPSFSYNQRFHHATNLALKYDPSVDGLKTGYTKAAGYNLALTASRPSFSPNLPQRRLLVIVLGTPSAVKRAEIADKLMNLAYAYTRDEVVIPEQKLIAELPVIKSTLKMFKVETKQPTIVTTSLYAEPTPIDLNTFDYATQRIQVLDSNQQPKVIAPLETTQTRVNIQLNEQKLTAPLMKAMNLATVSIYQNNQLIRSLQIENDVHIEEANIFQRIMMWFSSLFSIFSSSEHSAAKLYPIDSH

[2] = target: T2, PBP5/6a (Acinetobacter baumannii, UniProt G1C735); assay: bocillin-binding assay with SDS-PAGE; conditions: covalent; labelled compound; used to confirm identity of the purified protein
T2 construct: gene dacC; Triton X-100 extraction, Ni-NTA
T2 sequence (G1C735 20-382): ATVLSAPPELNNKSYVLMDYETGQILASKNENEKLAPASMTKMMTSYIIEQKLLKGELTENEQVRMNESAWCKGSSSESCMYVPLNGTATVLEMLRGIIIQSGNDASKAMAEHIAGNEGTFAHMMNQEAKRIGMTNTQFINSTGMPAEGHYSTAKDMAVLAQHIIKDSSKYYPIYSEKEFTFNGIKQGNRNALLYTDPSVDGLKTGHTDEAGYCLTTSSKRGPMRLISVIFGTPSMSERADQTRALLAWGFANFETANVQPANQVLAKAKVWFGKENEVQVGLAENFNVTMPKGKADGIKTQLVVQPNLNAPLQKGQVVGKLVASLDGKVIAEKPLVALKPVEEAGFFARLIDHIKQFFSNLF

Question: How did the “bocillin-binding assay with SDS-PAGE” value [1] turn out when `Cc1cc(C)n2c1C=C1C=CC(CCC(=O)Nc3ccc(OCC(=O)N[C@@H]4C(=O)N5[C@@H]4SC(C)(C)[C@@H]5C(=O)O)cc3)=[N+]1[B-]2(F)F` [bocillin] was run?
Answer: Protein purity and identity were confirmed by SDS-PAGE and bocillin-binding assays

Question: And the “bocillin-binding assay with SDS-PAGE” value [2]?
Answer: Protein purity and identity were confirmed by SDS-PAGE and bocillin-binding assays

From paper PMC13059705, “Peptidoglycan DD-peptidases have distinct activities that impact fitness of Acinetobacter baumannii” (mBio, 2026)
